Where two headings read alike, the source gives them in different places.
Key:
[1] = not given; remark: listed apart in the source
[2] = dynamic vapor sorption
[3] = urine
Description: On Day −7 a catheter was surgically placed in the bladder of each animal. The distal end of the catheter was anchored to a subcutaneous site and attached to a vascular access port (VAP). The port was secured, and the animals were allowed to recover. Each animal was subsequently fitted with a portable infusion pump that was attached to the bladder catheter via the VAP. […] All excreted urine was collected in 24-hour intervals through Day 6 or 8. Blood samples were collected daily on study Days 1 to 8. Bladder tissue samples were collected from each animal at necropsy.

[4] = In vitro protein binding in human urine; format: in vitro ADME
Description: (§1) Albuminuria/proteinuria had minimal effect on % free form in urine.
(§2) At the end of 6-hours post-dialysis incubation, drug was analyzed, and the recovery was calculated against the spiked concentrations.

Stability in human urine = format: in vitro ADME; conditions: freshly collected human urine, 37° C., 6 hours
Description: as §2

[5] = Stability in minipig urine; format: in vitro ADME; conditions: freshly collected minipig urine, 37° C., 6 hours
Description: as §2

[6] = In vitro protein binding in rat urine; format: in vitro ADME
Description: as §1, §2

Stability in rat urine = format: in vitro ADME; conditions: freshly collected rat urine, 37° C., 6 hours
Description: as §2

[7] = test system: RT-112 orthotopic bladder tumor; assay: Continuous bladder perfusion in athymic rats with orthotopic RT-112 bladder tumors
[8] = In vitro protein binding in minipig urine; format: in vitro ADME
Description: as §1, §2

[9] = rat, in vivo
Excerpt: Rat bladders (5 groups of rats, n=3/group) were surgically catheterized under anesthesia and the catheter was externalized, tunneled subcutaneously, and connected to a vascular access harness (VAH) in the neck. Rats were transferred to individual metabolic cages with free access to food and water during the 1-week post-surgery recovery period. […] Plasma and bladder samples were collected at all time points.

[10] = test system: UM-UC-1 orthotopic bladder tumors; assay: Continuous bladder perfusion in athymic rats with orthotopic UM-UC-1 bladder tumors
Description: Perfusion studies: The bladders of the study animals were cannulated on Day 1 and the animals were allowed to recover for 3 days. On Day 5, UM-UC-1 cells (2×10^6 cells) were injected into the lateral wall of each bladder. […] Based on the in vitro results, target urine concentrations of 0.5, 1.0, and 5.0 μg/mL were used in the perfusion experiments. Body weight, daily urine production, and daily water consumption were recorded. At necropsy, a plasma sample, bladder photographs, and bladder weight measurements were recorded.
The percent reduction in relative tumor weight between the control group and the drug perfusion groups was determined as an initial measure of efficacy. Bladder tissue and tumor samples were also submitted for analysis of FGFR signaling activity by determining the phosphorylated fibroblast growth factor receptor substrate (FRS)2a levels and the pERK to ERK ratio.

Q: What does the source list for `COc1cc(OC)cc(N(CCNC(C)C)c2ccc3ncc(-c4cnn(C)c4)nc3c2)c1.C[C@H](O)C(=O)O` [Erdafitinib L-lactate salt]?
A: solubility (as function of pH in water and simulated urine at 37° C.): very high solubility over a broad pH range; In Vitro Permeation ([1]; EVA (CoTran 9712)): ◯; In Vitro Permeation ([1]; TPU (EG-80A)): Δ; In Vitro Permeation ([1]; TPU (HP-60D-35)): ◯; In Vitro Permeation ([1]; TPU (HP-93A-100)): ◯; DVS [2]: Non-hygroscopic

Q: Which “Daily erdafitinib recoveries, of the average daily amount administered” value [3] does the source give for `COc1cc(OC)cc(N(CCNC(C)C)c2ccc3ncc(-c4cnn(C)c4)nc3c2)c1` [erdafitinib, N-(3,5-dimethoxyphenyl)-N′-(1-methylethyl)-N-[3-(1-methyl-1H-pyrazol-4-yl)quinoxalin-6-yl]ethane-1,2-diamine] here?
A: 15.7%

Q: What about the solubility (normal urine pH range of 5.5 to 7) of the same molecule?
A: significant pH-dependent solubility

Q: And the “Percent erdafitinib free in urine” value [4]?
A: 95%

Q: What about the stability in urine (Stability in human urine) of the same molecule?
A: sufficiently stable

Q: And the stability in urine [5]?
A: sufficiently stable

Q: What about the “Percent erdafitinib free in urine” value [6] of the same molecule?
A: 84%

Q: And the “In Vitro Permeation” value ([1]; EVA (CoTran 9712))?
A: Δ

Q: And the “In Vitro Permeation” value ([1]; TPU (EG-80A))?
A: Δ

Q: What about the “In Vitro Permeation” value ([1]; TPU (HP-60D-35)) of the same molecule?
A: ◯

Q: And the “In Vitro Permeation” value ([1]; TPU (HP-93A-100))?
A: ◯

Q: What about the stability in urine (Stability in rat urine) of the same molecule?
A: sufficiently stable

Q: And the “bladder weight vs vehicle control” value ([7]; 1.0 μg/mL perfusate concentration, p<0.05)?
A: significant bladder weight reduction

Q: And the “bladder weight decrease vs vehicle control” value ([7]; 0.25 and 0.5 μg/mL dose groups)?
A: not statistically significant

Q: What about the “percentage change in body weight vs vehicle control” value ([7]; 0.5, 1.0 and 5.0 μg/mL treatment groups (so in the source), except Group 4 on Day 11 (p<0.05)) of the same molecule?
A: Statistically non-significant difference

Q: And the “body weight loss, maximum mean values” ([7]; erdafitinib-treated group, Day 11)?
A: up to −3%

Q: What about the “Percent erdafitinib free in urine” value [8] of the same molecule?
A: 97%

Q: And the AUC0-120h ([9]; female, Sprague-Dawley, 0.72 mg)?
A: 127,000 ng · h/mL

Q: And the C96h [9]?
A: BQL

Q: And the C120h [9]?
A: BQL

Q: And the “bladder weight vs vehicle control” value ([10]; 0.5 (p<0.01), 1.0 and 5 μg/mL (p<0.001) nominal urine concentrations, 5 days perfusion)?
A: significant dose-related decrease

Q: What about the “percentage change in body weight vs vehicle control” value ([10]; 0.5, 1.0 and 5.0 μg/mL treatment groups) of the same molecule?
A: Statistically non-significant difference

Q: And the cage side observations ([10]; 5 days continuous perfusion, 0.5, 1.0, 5.0 μg/mL, any treatment group)?
A: no visible signs of abnormal behavior or clinical symptoms

Q: What about the DVS [2] of the same molecule?
A: Non-hygroscopic

— patent publication US20250041574A1 (TARIS Biomedical LLC, priority 2022, published 2025)
